# According to US20170029383A1, “Diaminotriazine Derivatives as Herbicides” (BASF SE, priority 2014, published 2017):
# Legend:
# Experiment in all cases: greenhouse experiment, pre-emergence treatment
# Conditions in all cases: pre-emergence method, application rate 0.500 kg/ha; scale from 0 to 100
# ABUTH = assay type: in vivo, Abutilon theophrasti
# From the text: (§1) The seeds of the test plants were sown separately for each species. For the pre-emergence treatment, the active ingredients, which had been suspended or emulsified in water, were applied directly after sowing by means of finely distributing nozzles. The containers were irrigated gently to promote germination and growth and subsequently covered with transparent plastic hoods until the plants had rooted. This cover caused uniform germination of the test plants, unless this had been impaired by the active ingredients. Depending on the species, the plants were kept at 10-25° C. or 20-35° C., respectively. The test period extended over 2 to 4 weeks. During this time, the plants were tended, and their response to the individual treatments was evaluated. Evaluation was carried out using a scale from 0 to 100. 100 means no emergence of the plants, or complete destruction of at least the aerial moieties, and 0 means no damage, or normal course of growth. A moderate herbicidal activity is given at values of at least 60, a good herbicidal activity is given at values of at least 70, and a very good herbicidal activity is given at values of at least 85. The plants used in the greenhouse experiments were of the following species: [table]
# AMARE = assay type: in vivo, Amaranthus retroflexus
# From the text: as §1
# SETFA = assay type: in vivo, Setaria faberi
# From the text: as §1
smiles,measurement,setting,value
"CC(C)Oc1cccc(F)c1Nc1nc(N)nc(C(C)(C)F)n1 [Example 1, N2-(2-fluoro-6-isopropoxy-phenyl)-6-(1-fluoro-1-methyl-ethyl)-1,3,5-triazine-2,4-diamine]",herbicidal activity against ABUTH,ABUTH,very good (a very good herbicidal activity is given at values of at least 85)
same,herbicidal activity against AMARE,AMARE,very good (a very good herbicidal activity is given at values of at least 85)
same,herbicidal activity against SETFA,SETFA,very good (a very good herbicidal activity is given at values of at least 85)
